Columns and labels:
[1] = test system: A. baumannii ATCC 17978; assay: Systemic A. baumannii murine infection model; assay type: in vivo, mouse
Method: Mouse infection models. Animal experiments were conducted according to guidelines set by the Canadian Council on Animal Care using protocols approved by the Animal Review Ethics Board at McMaster University under Animal Use Protocol #20-12-43. Before infection, mice were relocated at random from a housing cage to treatment or control cages. No animals were excluded from analyses, and blinding was considered unnecessary. Seven- to nine-week-old female C57BL/6 mice (Charles River) were infected intraperitoneally with ˜2×10^6 CFU of A. baumannii ATCC 17978, with 5% porcine mucin (Sigma-Aldrich). Infections were allowed to establish for 2 h, and treatments were administered intraperitoneally. For the survival study, the clinical endpoint was determined using a five-point body condition score analyzing weight loss, decrease in body temperature, respiratory distress, hampered mobility and hunched posture. Experimental endpoint was defined as five days post-infection for mice not reaching clinical endpoint. For CFU/mL enumeration, animals were infected as described above and euthanized 6 h post-infection, and blood was collected into sterile 2 ml heparinized tubes (BD Scientific) serially diluted in PBS and plated onto solid LB. Plates were incubated overnight at 37° C., and colonies were quantified to determine bacterial load.
This was directly compared to the activity of P35 and P36 in this model (all administered at 10 mg/kg) in combination with novobiocin (50 mg/kg).
For this experiment the same A. baumannii infection model was used, however, endpoint was defined as 6 h post-infection, at which point blood was collected for CFU/mL enumeration (FIG. 2b).

[2] = test system: HepG2 cells; conditions: human, 72 h, 75 µM
[3] = in vivo; conditions: female, C57BL/6, mouse, in vivo, iv, 1 mg/kg
Method: Plasma samples were taken from 3 mice per time point (5, 15, 30 min; 1, 2, 4, 6 and 8 h post-dose). An aliquot of 2 μL sample was protein precipitated with 60 μL methanol, the mixture was vortex-mixed well and centrifuged at 13000 rpm for 10 min at 4° C. 2 μL supernatant was injected for LC-MS/MS analysis. The mean plasma concentration and the standard deviation from all 3 animals within each time point were calculated. PK parameters were calculated with a non-compartmental analysis. The mean plasma concentrations from all 3 mice at each time point were used in the calculations.

[4] = In vitro metabolic stability, mouse; assay type: in vitro ADME; conditions: read-out: In vitro metabolic stability (t1/2, min), mouse
[5] = test system: LPS from E. coli EH100; assay: BODIPY-Cadaverine LPS displacement assay; assay type: binding; conditions: BODIPY-cadaverine displacement from E. coli EH100 LPS
Method: BODIPY-Cadaverine LPS displacement assay. The BODIPY-cadaverine LPS displacement assay was performed as previously described (Wood et al. 2004. Combinatorial Chemistry & High Throughput Screening, 7: 239-49; Klobucar et al. 2021. ACS Chemical Biology, 16: 929-42). A solution of BODIPY-cadaverine (2.25 μM) and LPS from E. coli EH100 (5.25 μM) in Tris-HCl buffer (50 mM, pH 7.4) was prepared. 0.5 μL of compound and 49.5 μL of the Tris-HCl buffer with BODIPY-cadaverine and LPS solution were added to a Corning nonbinding surface black 384-well polystyrene plate. Fluorescence intensity was measured immediately with an excitation wavelength of 580 nm and an emission wavelength of 620 nm. EC50 values were calculated using a three-parameter logistic curve in GraphPad Prism 9.

[6] = test system: A. baumannii (ATCC 17978); assay: Checkerboard potentiation assay with novobiocin; assay type: cell-based
Method: (§1) Bacterial strains and culture conditions. The following bacterial strains were used within this study; A. baumannii (ATCC 17978), K. pneumoniae (ATCC 43816), K. pneumoniae (ATCC 43816, expressing pGDP2:mcr-1), P. aeruginosa (PA01). Bacterial growth was in cation-adjusted Mueller-Hinton broth (MHB) at 37° C., and inoculum was prepared according to CLSI protocol (CLSI 2015).
(§2) Potentiation assays. Checkerboard analyses were conducted with each drug serially diluted at eight concentrations to create an 8×8 matrix. At least two biological replicates were done for each combination, and the means were used for FIC calculation. The FIC for each drug was calculated by dividing the concentration of the drug in the presence of codrug in a combination for a well showing <10% growth by the MIC for that drug alone. The FIC index (FICI) is the sum of the two FICs, with an FIC index≤0.5 deemed synergistic.

[7] = test system: K. pneumoniae (ATCC 43816, expressing pGDP2:mcr-1); assay: Checkerboard potentiation assay with novobiocin, mcr-1 strain; assay type: cell-based; conditions: mcr-1 expressing K. pneumoniae
[8] = in vitro; conditions: human
[9] = test system: K. pneumoniae (ATCC 43816); assay: Checkerboard potentiation assay with novobiocin; assay type: cell-based
Method: as §1, §2
(§3) To probe the spectrum of activity of the present analogs beyond A. baumannii, their interactions with novobiocin were assessed against the high-priority Gram-negative pathogens Klebsiella pneumoniae and P. aeruginosa (FIG. 5).

[10] = test system: P. aeruginosa (PA01); assay: Checkerboard potentiation assay with novobiocin; assay type: cell-based
Method: as §1, §2, §3

[11] = test system: A. baumannii; assay: Fold reduction of antibiotic MIC at fixed adjuvant concentration; assay type: cell-based; conditions: pentamidine or P35 at 50 μg/mL
Method: as §1, §2

Which results are given for N=C(N)c1ccc(OCCN(CCOc2ccc(C(=N)N)cc2)c2ccccc2)cc1 [Analog P35]?
Reduction in blood CFU/mL in combination with novobiocin ([1]; 10 mg/kg + 50 mg/kg novobiocin, 6 h post-infection): 3.05 log10; Animals rescued in combination with novobiocin ([1]; 10 mg/kg analog + 50 mg/kg novobiocin i.p. 2 h post-infection, endpoint 5 days): 100%; Impact on blood CFU/mL, treatment alone ([1]; alone, 6 h post-infection, compared to control-treated animals): no significant impact; Phospholipidosis MR, percentage in brackets [2]: 104%; AUC(0-inf) [3]: 55.3 ng·h/mL; AUC(0-t) [3]: 51.6 ng·h/mL; C0 [3]: 238 ng/mL; MRT inf [3]: 1.85 h; MRT last [3]: 1.24 h; Vd [3]: 33.4 L/kg; clearance [3]: 301 mL/min/kg; half-life [3]: 1.61 h; half-life [4]: 91.6 min; LPS Displacement (EC50, μg/mL) [5]: 87.21 µg/mL; FICI with novobiocin in presence of 20 mM Mg2+ ([6]; 20 mM Mg2+ added to growth media): 0.56; FICI AB ([6]; with novobiocin): 0.094; FICI with novobiocin against K. pneumoniae expressing mcr-1 [7]: 0.12; AC50 at 72 h ([8]; HepG2 viability / cell cycle arrest AC50): 14.5 µM; AC50 at 72 h ([8]; Nuclear Size AC50 (μM)): 94.5 µM; AC50 at 72 h ([8]; Phospholipidosis AC50 (μM)): 43.1 µM; FICI KP [9]: 0.12; FICI PA [10]: 0.3125; Average Fold-reduction in MIC, Ampicillin ([11]; MIC of ampicillin in A. baumannii): 1 fold; Average Fold-reduction in MIC, Bacitracin ([11]; MIC of bacitracin in A. baumannii): 2 fold; Average Fold-reduction in MIC, Chloramphenicol ([11]; MIC of chloramphenicol in A. baumannii): 2 fold; Average Fold-reduction in MIC, Clarithromycin ([11]; MIC of clarithromycin in A. baumannii): 384 fold; Average Fold-reduction in MIC, Doxycycline ([11]; MIC of doxycycline in A. baumannii): 4 fold; Average Fold-reduction in MIC, Erythromycin ([11]; MIC of erythromycin in A. baumannii): 32 fold; Average Fold-reduction in MIC, Fusidic Acid ([11]; MIC of fusidic acid in A. baumannii): 341.33 fold; Average Fold-reduction in MIC, Linezolid ([11]; MIC of linezolid in A. baumannii): 8 fold; Average Fold-reduction in MIC, Meropenem ([11]; MIC of meropenem in A. baumannii): 4 fold; Average Fold-reduction in MIC, Mupirocin ([11]; MIC of mupirocin in A. baumannii): 4 fold; Average Fold-reduction in MIC, Nafcillin ([11]; MIC of nafcillin in A. baumannii): 1.5 fold; Average Fold-reduction in MIC, Nalidixic Acid ([11]; MIC of nalidixic acid in A. baumannii): 4 fold; Average Fold-reduction in MIC, Novobiocin ([11]; MIC of novobiocin in A. baumannii): 512 fold; Average Fold-reduction in MIC, Oxacillin ([11]; MIC of oxacillin in A. baumannii): 1 fold; Average Fold-reduction in MIC, Rifampicin ([11]; MIC of rifampicin in A. baumannii): 384 fold; Average Fold-reduction in MIC, Rifaximin ([11]; MIC of rifaximin in A. baumannii): 256 fold; Average Fold-reduction in MIC, Roxithromycin ([11]; MIC of roxithromycin in A. baumannii): 341.33 fold; Average Fold-reduction in MIC, Thiostrepton ([11]; MIC of thiostrepton in A. baumannii): 170.67 fold; Average Fold-reduction in MIC, Trimethoprim ([11]; MIC of trimethoprim in A. baumannii): 5.33 fold; Average Fold-reduction in MIC, Vancomycin ([11]; MIC of vancomycin in A. baumannii): 4 fold

From US20250382261A1 (The Broad Institute, Inc., priority 2021, published 2025)
